Like-named read-outs stand apart in the source and are kept apart here.
Key:
human GR = target: T1, human GR (Homo sapiens, UniProt P04150); assay: Competition binding assay on cells, human GR
T1 construct: PC3 and DU145, two human prostate cancer models with endogenous GR expression; endogenous in cells; host or cells: DU145
T1 sequence (P04150 1-777): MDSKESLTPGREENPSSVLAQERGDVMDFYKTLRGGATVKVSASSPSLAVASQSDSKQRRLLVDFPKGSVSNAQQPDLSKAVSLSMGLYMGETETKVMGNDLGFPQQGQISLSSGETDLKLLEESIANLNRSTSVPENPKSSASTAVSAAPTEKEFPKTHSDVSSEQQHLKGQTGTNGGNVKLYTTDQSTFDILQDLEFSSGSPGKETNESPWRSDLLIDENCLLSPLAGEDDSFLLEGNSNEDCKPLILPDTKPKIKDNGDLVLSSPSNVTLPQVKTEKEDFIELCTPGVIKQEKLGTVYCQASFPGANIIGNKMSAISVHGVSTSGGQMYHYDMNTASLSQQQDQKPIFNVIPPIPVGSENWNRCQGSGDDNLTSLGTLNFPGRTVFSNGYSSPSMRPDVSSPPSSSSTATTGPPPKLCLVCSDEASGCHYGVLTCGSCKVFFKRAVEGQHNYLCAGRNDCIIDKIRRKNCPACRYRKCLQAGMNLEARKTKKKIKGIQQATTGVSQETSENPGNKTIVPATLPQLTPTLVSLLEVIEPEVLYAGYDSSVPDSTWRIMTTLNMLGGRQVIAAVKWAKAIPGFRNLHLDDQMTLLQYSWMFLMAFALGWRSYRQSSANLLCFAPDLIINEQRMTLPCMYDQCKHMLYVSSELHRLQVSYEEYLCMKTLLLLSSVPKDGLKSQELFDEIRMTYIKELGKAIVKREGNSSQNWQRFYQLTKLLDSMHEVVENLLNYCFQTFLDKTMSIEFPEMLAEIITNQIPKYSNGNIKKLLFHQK
Procedure: (§1) The KD for subfamily 3 group C nuclear hormone receptors was determined on cells by displacing ^3H-steroidal agonists for the respective receptor.
(§2) The cold ligands and ^3H-steroids were co-incubated on cells in PBS at room temperature for one hour. Following incubation, the cells were washed twice with ice cold PBS and the unbound activity was retained for analysis. The cells were lysed with 1 mL of 1 M NaOH and collected. Bound and unbound fractions were counted in a liquid scintillation counter and expressed as a percentage of the total activity added per equal relative number of cells. […] The specific binding component was plotted against the log of the competing ligand and curve fit using a non-linear regression algorithm with PRISM software.

huPR = target: T2, huPR (Homo sapiens, UniProt P06401); assay: Competition binding assay on cells, human PR; settings: MCF7 cells, displacing 3H-progesterone
T2 construct: DU145 (GR), LNCaP-AR (AR), MCF7 (PR, ER), GL261 (mouse GR), and 9L (rat GR); endogenous in cells; host or cells: MCF7
T2 sequence (P06401 1-933): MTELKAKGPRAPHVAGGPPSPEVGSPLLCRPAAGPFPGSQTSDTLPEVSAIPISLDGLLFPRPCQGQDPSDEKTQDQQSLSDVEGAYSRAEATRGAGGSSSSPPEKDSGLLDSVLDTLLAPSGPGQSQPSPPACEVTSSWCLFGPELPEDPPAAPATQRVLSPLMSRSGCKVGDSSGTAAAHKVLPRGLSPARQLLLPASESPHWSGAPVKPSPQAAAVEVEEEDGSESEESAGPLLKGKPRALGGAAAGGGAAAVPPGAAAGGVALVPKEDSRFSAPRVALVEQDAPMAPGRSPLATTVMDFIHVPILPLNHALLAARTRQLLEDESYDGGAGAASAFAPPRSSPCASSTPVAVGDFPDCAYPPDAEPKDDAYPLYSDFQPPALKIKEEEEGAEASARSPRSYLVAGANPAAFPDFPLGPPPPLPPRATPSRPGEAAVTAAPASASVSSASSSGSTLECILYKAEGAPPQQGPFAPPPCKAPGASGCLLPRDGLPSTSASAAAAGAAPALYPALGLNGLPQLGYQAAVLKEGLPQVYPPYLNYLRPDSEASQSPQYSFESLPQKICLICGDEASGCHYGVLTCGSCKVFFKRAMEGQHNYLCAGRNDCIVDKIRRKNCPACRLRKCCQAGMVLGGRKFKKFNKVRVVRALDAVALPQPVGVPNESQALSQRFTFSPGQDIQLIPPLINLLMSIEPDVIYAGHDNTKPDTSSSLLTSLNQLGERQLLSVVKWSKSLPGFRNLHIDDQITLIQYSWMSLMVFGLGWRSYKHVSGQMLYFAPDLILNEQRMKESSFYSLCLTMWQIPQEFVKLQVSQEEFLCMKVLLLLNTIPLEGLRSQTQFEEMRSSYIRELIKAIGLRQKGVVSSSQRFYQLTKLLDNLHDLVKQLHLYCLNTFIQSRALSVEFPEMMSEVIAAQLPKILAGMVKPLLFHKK
Procedure: as §1, §2

huMR = target: T3, huMR (Homo sapiens, UniProt P08235); assay: Competition binding assay on cells, human MR; settings: displacing 3H-aldosterone on cells
T3 sequence (P08235 1-984): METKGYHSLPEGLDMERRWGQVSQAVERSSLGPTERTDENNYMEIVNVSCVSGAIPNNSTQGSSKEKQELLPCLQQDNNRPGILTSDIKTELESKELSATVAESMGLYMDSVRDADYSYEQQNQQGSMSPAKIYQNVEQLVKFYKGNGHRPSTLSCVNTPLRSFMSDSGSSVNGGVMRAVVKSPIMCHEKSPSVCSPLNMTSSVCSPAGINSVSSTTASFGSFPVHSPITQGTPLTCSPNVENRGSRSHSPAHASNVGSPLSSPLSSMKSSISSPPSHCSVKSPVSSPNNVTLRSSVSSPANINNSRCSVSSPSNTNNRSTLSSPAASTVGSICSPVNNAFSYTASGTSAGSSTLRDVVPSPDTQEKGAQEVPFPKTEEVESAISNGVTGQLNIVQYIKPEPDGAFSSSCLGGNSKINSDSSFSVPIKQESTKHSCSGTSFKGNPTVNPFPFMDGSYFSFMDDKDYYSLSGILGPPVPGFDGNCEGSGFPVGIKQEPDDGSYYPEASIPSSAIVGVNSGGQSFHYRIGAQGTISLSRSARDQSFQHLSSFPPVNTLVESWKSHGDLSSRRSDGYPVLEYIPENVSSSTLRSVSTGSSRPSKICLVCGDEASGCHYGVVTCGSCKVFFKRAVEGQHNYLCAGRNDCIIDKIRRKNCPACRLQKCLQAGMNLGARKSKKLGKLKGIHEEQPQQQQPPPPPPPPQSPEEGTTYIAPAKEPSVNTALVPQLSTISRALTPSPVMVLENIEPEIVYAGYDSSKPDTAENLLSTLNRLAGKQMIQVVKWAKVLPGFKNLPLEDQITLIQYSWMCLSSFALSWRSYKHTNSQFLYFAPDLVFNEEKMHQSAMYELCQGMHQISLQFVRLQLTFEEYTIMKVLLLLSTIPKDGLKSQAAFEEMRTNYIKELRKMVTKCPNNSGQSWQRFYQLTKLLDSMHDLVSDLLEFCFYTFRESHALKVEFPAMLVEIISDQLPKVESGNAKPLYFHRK
Procedure: as §1, §2

[1] = DU145 cells, displacing 3H-dexamethasone, read-out: KD huGR

| SMILES | Kd (human GR; [1]) | Kd (human GR; Supplementary Table 1, read-out: KD for human GR) | Kd (huPR) | Kd (huMR) |
| --- | --- | --- | --- | --- |
| C[C@]12C=CC(=O)C=C1CCC1C2[C@@H](O)C[C@@]2(C)C1CC[C@]2(O)C(=O)COCCCF (stereo partly shown) [GR01] | 3.86 nM | 3.8 nM | 1060 nM | 212 nM |
| C[C@]12C=CC(=O)C=C1CCC1C2[C@@H](O)C[C@@]2(C)C1CC[C@]2(O)C(=O)CNC(=O)c1ccc(F)cc1 (stereo partly shown) [GR02] | 15.9 nM |  | 242 nM | 4030 nM |

From publication PMC5945515, “Measuring glucocorticoid receptor expression in vivo with PET” (Oncotarget, 2018)
